Measured values from US10940139B2, “Compounds that interact with the Ras superfamily for the treatment of cancers, inflammatory diseases, rasopathies, and fibrotic disease” (Shy Therapeutics LLC, priority 2017, dated 2021).

Columns and labels:
[1] = system: TNFα production in RAW 264.7 macrophage cell line; assay: Mouse TNF alpha quantification assay (LPS-stimulated macrophages, ELISA); type: cell-based; conditions: RAW264.7, RAW 264.7 murine leukemia virus transformed macrophage cell lines, LPS stimulation, read-out: TNF-α % Inhibition at 30 μM
[2] = system: IL6 production in RAW 264.7 macrophage cell line; assay: Mouse IL6 quantification assay (LPS-stimulated macrophages, ELISA); type: cell-based; conditions: RAW264.7, RAW 264.7 murine leukemia virus transformed macrophage cell lines, LPS stimulation, read-out: IL-6 % Inhibition at 30 μM

Row | Compound | inhibition at 30 µM [1] | inhibition at 30 µM [2]
1 | Cc1sc2c(O)nc(-c3ccccn3)nc2c1C(=O)N1CCN(c2ccccc2)CC1C (stereo not shown) [drawing 2333] | 0% | 1 to 25%
2 | Cn1cnc(-c2nc(O)c3scc(-c4cccc(C(F)(F)F)c4)c3n2)c1 [drawing 2431] | 0% | 0%
3 | O=C(Nc1nnc(-c2ccccn2)[nH]1)c1cccc(N2CCCS2(=O)=O)c1 [drawing 1989] | 1 to 25% | 1 to 25%
4 | OCC1(c2ccc(-c3nc(-c4ccccn4)nc(-c4ccc(C5(CO)CC5)cc4)c3Oc3ccccc3)cc2)CC1 [drawing 2359] | 0% | 0%
5 | CCC(C)c1csc2c(OC)nc(-c3ccccn3)nc12 (stereo not shown) [drawing 2310] | 1 to 25% | 26 to 50%
6 | CC(Oc1ccc(C#N)cc1)C(=O)Nc1nnc(-c2ccccn2)[nH]1 (stereo not shown) [drawing 1977] | 1 to 25% | 1 to 25%
7 | Nc1cccc(-c2csc3c(O)nc(-c4ccccn4)nc23)n1 [drawing 2341] | 26 to 50% | 76 to 100%
8 | Cc1ccc(-c2ccc(Oc3ccc(C(F)(F)F)cn3)c(C)c2)cc1 [drawing 2056] | 1 to 25% | 0%
9 | COCCCC1CCN(C(=O)c2csc3c(O)nc(-c4ccccn4)nc23)CC1 [drawing 2104] | 1 to 25% | 51 to 75%
10 | CC(Oc1ccccc1C#N)C(=O)Nc1nnc(-c2ccccn2)[nH]1 (stereo not shown) [drawing 1966] | 1 to 25% | 0%
11 | CCN(CC)S(=O)(=O)c1cc(C)c(C)c(NC(=O)CCc2c(C)nc(-c3ccccn3)nc2O)c1 [drawing 2037] | 1 to 25% | 0%
12 | OCCNc1nc(-c2ccccn2)nc2scc(-c3ccccc3)c12 [drawing 2038] | 0% | 1 to 25%
13 | c1ccc(-c2nc(NCC3CCCO3)c3ccsc3n2)nc1 (stereo not shown) [drawing 2129] | 1 to 25% | 51 to 75%
14 | Oc1nc(-c2ccccn2)nc2c(-c3cc(Cl)cc(Cl)c3)csc12 [drawing 2241] | 1 to 25% | 0%
15 | COCCN(CCOC)c1nc(-c2ccccn2)nc2scc(C(=O)NCCc3ccc(OC)nc3)c12 [drawing 2206] | 0% | 1 to 25%
16 | O=C(c1ccc(=O)[nH]n1)N1CCCc2c(O)nc(-c3ccccn3)nc21 [drawing 2078] | 1 to 25% | 76 to 100%
17 | O=C(Cc1cccc(F)c1)Nc1nc(-c2ccccn2)cs1 [drawing 2018] | 1 to 25% | 1 to 25%
18 | COc1ccc(COC[C@H]2O[C@@H](c3csc4c(=O)[nH]c(-c5ccccn5)nc34)[C@H](O)[C@@H]2O)cc1 [drawing 2360] | 26 to 50% | 1 to 25%
19 | COc1ccc(-c2cc3nc(-c4ccccn4)nc(O)c3s2)cc1 [drawing 2390] | 1 to 25% | 0%
20 | O=C(Nc1nnc(-c2ccccn2)[nH]1)c1ccc(=O)[nH]n1 [drawing 2003] | 1 to 25% | 26 to 50%
21 | N#Cc1ccc2c(c1)CCCC2C(=O)Nc1ccnc(-c2ccccn2)n1 (stereo not shown) [drawing 2248] | 0% | 1 to 25%
22 | CC(C)Oc1ccc(-c2csc3c(O)nc(-c4nccn4C)nc23)cn1 | 76 to 100% | 76 to 100%

Row | Compound | inhibition at 30 µM [1] | inhibition at 30 µM [2]
23 | Cc1cncc(-c2csc3c(O)nc(-c4ccccn4)nc23)c1 [drawing 2305] | 1 to 25% | 76 to 100%
24 | N#Cc1ccc(COCC(=O)Nc2ccnc(-c3ccccn3)n2)cc1 [drawing 2208] | 1 to 25% | 1 to 25%
25 | CCN(CC)C(=O)CN1CCN(c2nc(-c3ccccn3)nc3scc(-c4ccccc4)c23)CC1 [drawing 2150] | 51 to 75% | 76 to 100%
26 | CC(Nc1nc(-c2ccccn2)nc2scc(-c3ccccc3)c12)c1nncn1C (stereo not shown) [drawing 2138] | 1 to 25% | 1 to 25%
27 | O=C1CN(c2nc(-c3ccccn3)nc3scc(-c4ccccc4)c23)CCN1CCO [drawing 2131] | 1 to 25% | 1 to 25%
28 | O=C(CCCc1cccnc1)N1CCCc2c(O)nc(-c3ccccn3)nc21 [drawing 2088] | 1 to 25% | 76 to 100%
29 | O=C(c1csc2c(O)nc(-c3ccccn3)nc12)N1CCc2ccccc2CC1 [drawing 2116] | 0% | 51 to 75%
30 | Oc1nc(-c2ccccn2)nc2c(Br)csc12 [drawing 2100] | 76 to 100% | 76 to 100%
31 | N#Cc1ccccc1OCC(=O)Nc1nnc(-c2ccccn2)[nH]1 [drawing 1954] | 0% | 1 to 25%
32 | O=C(c1ccc2ccccc2n1)N1CCCc2c(O)nc(-c3ccccn3)nc21 [drawing 2075] | 1 to 25% | 76 to 100%
33 | Cc1nc(-c2ccccn2)nc(O)c1CCC(=O)Nc1cc(F)ccc1F [drawing 2032] | 1 to 25% | 1 to 25%
34 | Oc1nc(-c2ccccn2)nc2sc3c(c12)CCCNC3 [drawing 2245] | 1 to 25% | 1 to 25%
35 | Cn1ccnc1-c1nc(NCCOC2CC2)c2c(-c3ccccc3)c(-c3ccccc3)sc2n1 [drawing 2403] | 76 to 100% | 76 to 100%
36 | CC(C)Oc1ccc(-c2csc3c(O)nc(-c4nccn4C)nc23)cc1F [drawing 2436] | 0% | 1 to 25%
37 | COC(=O)c1ccc(C(=O)NCC2(c3ccccc3OC)CCCC2)nc1 [drawing 2058] | 1 to 25% | 0%
38 | CC1(N)CCN(C(=O)c2csc3c(O)nc(-c4ccccn4)nc23)CC1 [drawing 2111] | 0% | 1 to 25%
39 | CC(C)OCCNc1nc(-c2nccn2C)nc2sc(-c3ccccc3)c(-c3ccccc3)c12 [drawing 2394] | 1 to 25% | 1 to 25%
40 | O=C(Nc1nnc(-c2ccccn2)[nH]1)c1cccc(NC(=O)C2CCCO2)c1 (stereo not shown) [drawing 1961] | 0% | 1 to 25%
41 | O=C(Nc1nc(-c2ccccn2)cs1)C1CC(=O)N(c2ccc3c(c2)OCCO3)C1 (stereo not shown) [drawing 2016] | 1 to 25% | 26 to 50%
42 | O=C(Nc1nnc(-c2ccccn2)[nH]1)c1ccc(Oc2ccccc2)nc1 [drawing 1956] | 1 to 25% | 26 to 50%
43 | COc1cnc(CNC(=O)c2c(C)sc3c(O)nc(-c4ccccn4)nc23)[nH]c1=O [drawing 2350] | 1 to 25% | 0%
44 | O=c1nc(-c2ccccn2)[nH]c2ccsc12 [drawing 2027] | 0% | 1 to 25%

Row | Compound | inhibition at 30 µM [1] | inhibition at 30 µM [2]
45 | COc1cc(OC)cc(N2CCN(C(=O)c3csc4c(O)nc(-c5ccccn5)nc34)CC2)c1 [drawing 2183] | 1 to 25% | 26 to 50%
46 | COCCNc1nc(-c2nccn2C)nc2sc(-c3ccccc3)c(-c3ccccc3)c12 [drawing 2362] | 26 to 50% | 51 to 75%
47 | CC(C1CC1)N(CC(F)(F)F)C(=O)Cc1ccc(-c2ccccc2)cc1 (stereo not shown) [drawing 2064] | 1 to 25% | 1 to 25%
48 | O=S(=O)(Oc1cc(C(F)(F)F)cc(C(F)(F)F)c1)N1CCc2ccccc2C1 [drawing 2062] | 0% | 51 to 75%
49 | CS(=O)(=O)c1cccc(C(=O)N2CCCc3c(O)nc(-c4ccccn4)nc32)c1 [drawing 2079] | 0% | 51 to 75%
50 | CC(C)C1=C(O)C2(CC2c2ccc(-c3ccccc3)cc2)C(C)CC1 (stereo not shown) [drawing 2068] | 1 to 25% | 0%
51 | COc1c(O)nc(-c2ccccn2)nc1Oc1cccc(C(F)(F)F)c1 [drawing 2384] | 26 to 50% | 1 to 25%
52 | Cc1nc(-c2ccccn2)nc(O)c1CCC(=O)NC1CCc2ccccc21 (stereo not shown) [drawing 2033] | 26 to 50% | 26 to 50%
53 | Cn1cc(C2CN(C(=O)c3csc4c(O)nc(-c5ccccn5)nc34)CCN2)cn1 (stereo not shown) [drawing 2201] | 76 to 100% | 76 to 100%
54 | CN(C)CCOc1cccc(-c2csc3c(O)nc(-c4ccccn4)nc23)c1 [drawing 2323] | 76 to 100% | 76 to 100%
55 | COc1cnc(CNC(=O)c2csc3nc(-c4ccccn4)nc(N)c23)[nH]c1=O [drawing 2344] | 1 to 25% | 1 to 25%
56 | O=C(NCCc1cccnc1)c1csc2c(O)nc(-c3ccccn3)nc12 [drawing 2115] | 0% | 26 to 50%
57 | COc1cncc(CCNC(=O)c2csc3nc(-c4ccccn4)nc(N4CCOCC4)c23)c1 | 0% | 1 to 25%
58 | O=C(CC1CCCC1)NCC(=O)Nc1nnc(-c2ccccn2)[nH]1 [drawing 1962] | 1 to 25% | 1 to 25%
59 | CCOCCC1CCN(C(=O)c2csc3c(O)nc(N)nc23)CC1 [drawing 2091] | 1 to 25% | 0%
60 | N#Cc1cccc(N2CCN(C(=O)c3csc4c(O)nc(-c5ccccn5)nc34)CC2)c1 [drawing 2181] | 0% | 51 to 75%
61 | O=C(Nc1nnc(-c2ccccn2)[nH]1)c1csc(-c2ccco2)n1 [drawing 1994] | 0% | 51 to 75%
62 | CCCOc1ccc2ccccc2c1CN(C)S(=O)(=O)N1CC(C)OC(C)C1 (stereo not shown) [drawing 2061] | 51 to 75% | 1 to 25%
63 | O=C(c1csc2c(O)nc(-c3ccccn3)nc12)N1CCNC(Cc2ccccc2)C1 (stereo not shown) [drawing 2202] | 1 to 25% | 76 to 100%
64 | COCCNc1nc(-c2nccn2C)nc2sc(-c3ccc(OC)cc3)c(-c3ccccc3)c12 [drawing 2424] | 51 to 75% | 76 to 100%
65 | CN(CC(=O)Nc1nnc(-c2ccccn2)[nH]1)Cc1ccccc1 [drawing 1988] | 1 to 25% | 26 to 50%
